Patent publication US3948886A, “6-Substituted purine 3',5'-cyclic nucleotides” (ICN Pharmaceuticals, Inc., priority 1973, dated 1976)

What was measured:
Herpes virus Type 1 = assay: Antiviral activity, virus rating (VR) method, Herpes Type 1; type: cell-based; conditions: virus rating (VR) method of Sidwell et al.
Source text: (§1) Tested according to the virus rating (VR) method of Sidwell et al., Proc. Soc.

adenyl cyclase = assay: Adenyl cyclase inhibition (guinea pig lung particulate fraction); type: biochemical; conditions: guinea pig lung particulate enzyme fraction, 1.2 mM ATP, pH 7.8, 15 min at 37°; read-out: I50 (concentration required for 50% enzyme inhibition)
Protocol: Lunt alveolar tissue was obtained from normal guinea pigs. The tissue was minced and a Duall tissue grinder was used to prepare a 20% homogenate in chilled buffer containing 1 mM MgCl 2 and 2 mM glycylglycine, pH 7.5 (F. Murad et al., J. Biol. Chem. 237: 1233, 1962). The homogenate was strained through four layers of gauze and centrifuged at 1000xg for 15 min at 4°. The pellet was resuspended in the original volume of buffer and recentrifuged. The pellet was again resuspended in buffer and 0.5 - 1.0 ml aliquots were sealed in ampoules and stored under liquid nitrogen for future assay of adenylate cyclase activity. […] Protein was determined by the method of Lowry et al., J. Biol. Chem. 193: 265, 1951, with crystalline bovine serum albumin as standard.
Adenylate cyclase activity was assayed in duplicate by a modification of previously published methods (G. Krishna et al., J. Pharmacol. Exp. Therap. 163: 379, 1968; G. S. Levey and S. E. Epstein, Circ. Res. 24: 151, 1969). The total assay volume was 0.59 ml and contained 1.8 mM MgCl2, 0.8 mM glycylglycine, 32 mM Tris (pH 7.8), 1.2 mM ATP, 3-5×10^6 cpm [α-^32 P] ATP, and particulate enzyme fraction (100-150 μg. lung protein). Concentrated solutions of compounds to be tested were prepared fresh daily by dissolution in water, ethanol, or dimethyl sulfoxide; 5-10 μl of the solution was added to the incubation mixture to give the desired final concentration. Control assays (without compound) contained solvent alone.
The incubation mixture was reacted for 15 min at 37° in a shaker, and then boiled for 3 min to inactivate the cyclase. One hundred μl of a solution containing 4 μmoles ATP, 1.25 μmoles cyclic AMP, and 0.15μCi [^3 H] cyclic AMP was added to the reaction mixture. […] After centrifugation, 1 ml of supernatant containing [^32 P] cyclic AMP and [^3 H] cyclic AMP was mixed with 15 ml of scintillator (100 g naphthalene, 14 g PPO, and 0.1 g dimethyl POPOP per 2 l dioxane) and counted. […]

[1] = tested on: cyclic AMP phosphodiesterase; assay: Resistance to phosphodiesterase (PDE) degradation; type: biochemical; conditions: rabbit kidney PDE, pH 7.5, 37°C
Rhino viruses = assay: Antiviral activity, virus rating (VR) method, Rhino viruses; type: cell-based; conditions: virus rating (VR) method of Sidwell et al.
Source text: as §1

[2] = tested on: cyclic AMP-dependent protein kinase; assay: Activation of bovine brain cyclic AMP-dependent protein kinase; type: biochemical; conditions: pH 6, relative to cyclic AMP
Protocol: Cyclic AMP-dependent protein kinase was purified to the stage of DEAE cellulose chromatography from bovine brain using the procedure of Miyamoto et al., J. Biol. Chem. 244, 6395 (1969). Protein kinase activity was assayed by measuring the incorporation of ^32 P-phosphate into histone from γ-^32 P labeled ATP. The incubation mixture contained (amounts in μmoles): sodium glycerol phosphate buffer, pH 6, 10; γ-^32 P-ATP, ~2 × 10^6 cpm, 0.001; magnesium acetate, 2; sodium fluoride, 2; EDTA, 0.06; histone, 40 - 400 μg; cAMP, cGMP or analog as indicated; purified protein kinase, 5 - 25 μg in a final volume of 0.2 ml. Activation constants (Ka) were determined according to the procedure of Muneyama et al., supra. The Ka values relative to cyclic AMP (Ka') are reported in Table IV and compared to Ka' for compound 6.

L-929 cells = assay: Interferon potentiation in vitro with L-929 cells; type: cell-based
Herpes virus Type 2 = assay: Antiviral activity, virus rating (VR) method, Herpes Type 2; type: cell-based; conditions: virus rating (VR) method of Sidwell et al.
Source text: as §1

[3] = tested on: 6-methylthio-purine riboside-resistant Ehrlich carcinomas; assay: Growth inhibition of surgically implanted Ehrlich carcinomas in mice; type: in vivo; conditions: intraperitoneally, 83 μmoles/Kg

Row | Compound | activity against Herpes virus Type 1 (Herpes virus Type 1) | IC50 (adenyl cyclase) [µM] | rate of analog hydrolysis relative to cyclic AMP (α) [1] | activity against Rhino viruses (Rhino viruses) | Ka' (= Ka, cyclic AMP/Ka analog) [2] | interferon potentiation (L-929 cells) | activity against Herpes virus Type 2 (Herpes virus Type 2) | inhibition of growth of Ehrlich carcinomas [3]
1 | CCSc1ncnc2c1ncn2[C@@H]1O[C@@H]2COP(=O)(O)O[C@H]2[C@H]1O [Compound 7b, 6-Ethylthio-9-β-D-ribofuranosylpurine 3', 5'-cyclic phosphate] | exhibited activity | 1000 | 0.57 | exhibited activity | 2.0 | marked interferon potentiation | – | –
2 | CSc1ncnc2c1ncn2[C@@H]1O[C@@H]2COP(=O)(O)O[C@H]2[C@H]1O [Compound 7a, 6-Methylthio-9-β-D-ribofuranosylpurine 3', 5'-cyclic phosphate] | exhibited activity | 340 | 0.41 | – | 1.45 | marked interferon potentiation | exhibited activity | –
3 | O=P1(O)OC[C@H]2O[C@@H](n3cnc4c(=S)[nH]cnc43)[C@H](O)[C@@H]2O1 [Compound 6, 9-β-D-Ribofuranosylpurin-6-thione 3', 5'-cyclic phosphate, reference compound] | – | – | 1.06 | – | 0.56 | did not | – | –
4 | O=P1(O)OC[C@H]2O[C@@H](n3cnc4c(SCc5ccccc5)ncnc43)[C@H](O)[C@@H]2O1 [Compound 7c, 6-Benzylthio-9-β-D-ribofuranosylpurine 3', 5'-cyclic phosphate] | – | 7000 | 0.54 | – | 1.25 | – | exhibited activity | inhibited growth
